Reference: US10835542B2, “9-aminomethyl minocycline compounds and use thereof in treating community-acquired bacterial pneumonia (CABP)” (Paratek Pharmaceuticals, Inc., priority 2016, dated 2020)
Several values for one entry are separate records, joined by “and”; a condition that tells them apart may be missing. Equal values may be shown once. Read-outs that look alike come from different tables or passages of the source.

Assays:
Type in all cases: in vivo, human
[1] = tested on: Community-Acquired Bacterial Pneumonia (CABP); experiment: Phase 3 CABP study: Investigator's Assessment of Clinical Response at PTE
[2] = Phase 1 multiple oral dose study: urine PK
Protocol: Urine samples were only collected from a subset of subjects because analysis of urine PK was added by an amendment to the study protocol after the study was already underway.
Additional parameters Ae0-4, Ae4-8, Ae8-12, Ae12-24, and Ae0-24 were also calculated.

Staphylococcus aureus = settings: PTE, microITT
Haemophilus influenzae = experiment: Clinical success at PTE by baseline pathogen, microITT; settings: N1 = 32 (Compound 1), 16 (Moxifloxacin)
Mycoplasma pneumoniae = experiment: as above; settings: N1 = 70 (Compound 1), 57 (Moxifloxacin)
Chlamydophila pneumoniae = experiment: as above; settings: N1 = 28 (Compound 1), 28 (Moxifloxacin)
[3] = CE-PTE, PORT Risk Class II as randomized
[4] = CE-PTE, PORT Risk Class III as randomized
[5] = CE-PTE, PORT Risk Class III/IV as randomized
[6] = CE-PTE, PORT Risk Class IV as randomized
[7] = CE-PTE, actual PORT Risk Class II
[8] = CE-PTE, actual PORT Risk Class III
[9] = CE-PTE, actual PORT Risk Class III/IV
[10] = CE-PTE, actual PORT Risk Class IV
[11] = ITT, PORT Risk Class II as randomized
[12] = ITT, PORT Risk Class III as randomized
[13] = ITT, PORT Risk Class III/IV as randomized
[14] = ITT, PORT Risk Class IV as randomized
[15] = ITT, actual PORT Risk Class III
[16] = ITT, actual PORT Risk Class III/IV

## CN(C)c1cc(CNCC(C)(C)C)c(O)c2c1C[C@H]1C[C@H]3[C@H](N(C)C)C(O)=C(C(N)=O)C(=O)[C@@]3(O)C(O)=C1C2=O [Compound 1, 9-[(2,2-dimethyl-propylamino)-methyl]-minocycline]
[1]; CE-PTE
  Difference (95% CI) in Overall Clinical Success rate at PTE, Compound 1 minus moxifloxacin: 2.5% and 2.5 (−1.7, 6.8) %
  Overall clinical response at PTE: Clinical Failure: 24 (7.1) n (%)
  Overall clinical response at PTE: Clinical Success: 316 (92.9) n (%)
[1]; [3]
  Clinical Failure at PTE: 3 (6.8) n (%)
  Clinical Success at PTE: 41 (93.2) n (%)
  Difference (95% CI) in clinical success at PTE: 1.5 (−11.2, 13.9)^[4] %
[1]; [4]
  Clinical Failure at PTE: 14 (6.5) n (%)
  Clinical Success at PTE: 202 (93.5) n (%)
  Difference (95% CI) in clinical success at PTE: 2.5 (−2.7, 7.8)^[4] %
[1]; [5]
  Clinical Failure at PTE: 21 (7.1) n (%)
  Clinical Success at PTE: 275 (92.9) n (%)
  Difference (95% CI) in clinical success at PTE: 2.7 (−1.9, 7.3)^[4] %
[1]; [6]
  Clinical Failure at PTE: 7 (8.8) n (%)
  Clinical Success at PTE: 73 (91.3) n (%)
  Difference (95% CI) in clinical success at PTE: 3.0 (−6.8, 12.8)^[4] %
[1]; [7]
  Clinical Failure at PTE: 2 (4.4) n (%)
  Clinical Success at PTE: 43 (95.6) n (%)
  Difference (95% CI) in clinical success at PTE: 5.8 (−6.1, 18.1)^[4] %
[1]; [8]
  Clinical Failure at PTE: 13 (6.4) n (%)
  Clinical Success at PTE: 191 (93.6) n (%)
  Difference (95% CI) in clinical success at PTE: 1.5 (−3.6, 6.9)^[4] %
[1]; [9]
  Clinical Failure at PTE: 22 (7.5) n (%)
  Clinical Success at PTE: 273 (92.5) n (%)
  Difference (95% CI) in clinical success at PTE: 2.0% and 2.0 (−2.6, 6.6)^[4] %
[1]; [10]
  Clinical Failure at PTE: 9 (9.9) n (%)
  Clinical Success at PTE: 82 (90.1) n (%)
  Difference (95% CI) in clinical success at PTE: 2.9 (−6.7, 12.5)^[4] %
[1]; ITT
  Difference (95% CI) in Overall Clinical Success rate at PTE, Compound 1 minus moxifloxacin: 2.5% and 2.5 (−2.4, 7.4) %
  Overall clinical response at PTE: Clinical Failure: 32 (8.3) n (%)
  Overall clinical response at PTE: Clinical Failure or Indeterminate: 48 (12.4) n (%)
  Overall clinical response at PTE: Clinical Success: 338 (87.6) n (%)
  Overall clinical response at PTE: Indeterminate: 16 (4.1) n (%)
[1]; [11]
  Clinical Failure at PTE: 6 (10.7) n (%)
  Clinical Failure or Indeterminate at PTE: 11 (19.6) n (%)
  Clinical Success at PTE: 45 (80.4) n (%)
  Difference (95% CI) in clinical success at PTE: −3.6 (−18.2, 11.0)^[4] %
  Indeterminate at PTE: 5 (8.9) n (%)
[1]; [12]
  Clinical Failure at PTE: 17 (7.1) n (%)
  Clinical Failure or Indeterminate at PTE: 24 (10.0) n (%)
  Clinical Success at PTE: 217 (90.0) n (%)
  Difference (95% CI) in clinical success at PTE: 3.4 (−2.4, 9.4)^[4] %
  Indeterminate at PTE: 7 (2.9) n (%)
[1]; [13]
  Clinical Failure at PTE: 26 (7.9) n (%)
  Clinical Failure or Indeterminate at PTE: 37 (11.2) n (%)
  Clinical Success at PTE: 293 (88.8) n (%)
  Difference (95% CI) in clinical success at PTE: 3.5 (−1.6, 8.7)^[4] %
  Indeterminate at PTE: 11 (3.3) n (%)
[1]; [14]
  Clinical Failure at PTE: 9 (10.1) n (%)
  Clinical Failure or Indeterminate at PTE: 13 (14.6) n (%)
  Clinical Success at PTE: 76 (85.4) n (%)
  Difference (95% CI) in clinical success at PTE: 3.4 (−7.5, 14.0)^[4] %
  Indeterminate at PTE: 4 (4.5) n (%)
[1]; ITT, actual PORT Risk Class II
  Clinical Failure at PTE: 5 (8.8) n (%)
  Clinical Failure or Indeterminate at PTE: 10 (17.5) n (%)
  Clinical Success at PTE: 47 (82.5) n (%)
  Difference (95% CI) in clinical success at PTE: −1.5 (−15.7, 12.8)^[4] %
  Indeterminate at PTE: 5 (8.8) n (%)
[1]; [15]
  Clinical Failure at PTE: 16 (7.0) n (%)
  Clinical Failure or Indeterminate at PTE: 21 (9.3) n (%)
  Clinical Success at PTE: 206 (90.7) n (%)
  Difference (95% CI) in clinical success at PTE: 2.8 (−3.0, 8.7)^[4] %
  Indeterminate at PTE: 5 (2.2) n (%)
[1]; [16]
  Clinical Failure at PTE: 27 (8.2) n (%)
  Clinical Failure or Indeterminate at PTE: 38 (11.6) n (%)
  Clinical Success at PTE: 291 (88.4) n (%)
  Difference (95% CI) in clinical success at PTE: 3.3% and 3.3 (−1.9, 8.5)^[4] %
  Indeterminate at PTE: 11 (3.3) n (%)
[1]; ITT, actual PORT Risk Class IV
  Clinical Failure at PTE: 11 (10.8) n (%)
  Clinical Failure or Indeterminate at PTE: 17 (16.7) n (%)
  Clinical Success at PTE: 85 (83.3) n (%)
  Indeterminate at PTE: 6 (5.9) n (%)
[2]; 300 mg, Day 1 (n = 2)
  Ae0-24, Mean (CV): 20.37 (8.3) mg
  Fe0-24, Mean (CV): 6.79 (8.3) %
[2]; 300 mg, Day 5 (n = 3)
  Ae0-24, Mean (CV): 26.14 (14.6) mg
  Fe0-24, Mean (CV): 8.71 (14.6) %
[2]; 450 mg, Day 5 (n = 5)
  Ae0-24, Mean (CV): 30.81 (33.0) mg
  Fe0-24, Mean (CV): 6.85 (33.0) %
[2]; 600 mg, Day 1 (n = 1)
  Ae0-24, Mean (CV): 31.96 mg
  Fe0-24, Mean (CV): 5.33%
[2]; 600 mg, Day 5 (n = 4)
  Ae0-24, Mean (CV): 51.82 (14.8) mg
  Fe0-24, Mean (CV): 8.64 (14.8) %
Staphylococcus aureus; Staphylococcus aureus MRSA, N1 = 0 (Compound 1), 1 (Moxifloxacin)
  Clinical Success n (%): 0 n (%)
Staphylococcus aureus; Staphylococcus aureus MSSA, N1 = 11 (Compound 1), 10 (Moxifloxacin)
  Clinical Success n (%): 8 (72.7) n (%)
Staphylococcus aureus; baseline pathogen Staphylococcus aureus, N1 = 11 (Compound 1), 11 (Moxifloxacin)
  Clinical Success n (%): 8 (72.7) n (%)
Haemophilus influenzae
  Clinical Success n (%): 26 (81.3) n (%)
Mycoplasma pneumoniae
  Clinical Success n (%): 66 (94.3) n (%)
Chlamydophila pneumoniae
  Clinical Success n (%): 25 (89.3) n (%)
